Consider 8 molecules from ChEMBL document CHEMBL1151522, “Syntheses of homoserine phosphate analogs as potential inhibitors of bacterial threonine synthase” (Bioorg Med Chem Lett, 1994).

Experiment [1] can be described thus: Inhibition of threonine synthase in Escherichia coli; c: indicates No inhibition at 10 mM.
Experiment [2] has as its system Escherichia coli. In words: Inhibition of Escherichia coli threonine synthase expressed as inactivation constant; d: indicates competitive inhibitor.
A short description of experiment [3]: Inhibition of threonine synthase in Escherichia coli.
Experiment [4] concerns Escherichia coli. The experiment can be described thus: Inhibition of Escherichia coli threonine synthase expressed as inactivation constant.

In general, Ki refers to a measure of affinity in units of concentration, obtained from inhibition or displacement. High values mean lower affinity, low ones higher affinity. As to `NC(C/C=C\P(=O)(O)O)C(=O)O` (stereo not drawn), the Ki entry in experiment [1] is given as “No inhibition”.

In the case of `NC(CSCP(=O)(O)O)C(=O)O` (stereo not drawn), the K inact result in experiment [2] is given as “d”. Besides, the Ki in experiment [3] worked out at 33 µM.

Take `NC(CNCP(=O)(O)O)C(=O)O` (stereo not drawn): the K inact in experiment [4] stood at 1.44 min⁻¹. Affinity in experiment [3] was put at a Ki of 59 µM.

For `NC(/C=C/CP(=O)(O)O)C(=O)O` (stereo not drawn), in experiment [4], the K inact came to 0.25 min⁻¹. Also, the Ki in experiment [3] was determined as 400 µM.

For the molecule `NC(/C=C\CP(=O)(O)O)C(=O)O` (stereo not drawn), the K inact in experiment [4] came to 1.5 min⁻¹. Moreover, the affinity in experiment [3], expressed as Ki, was 100000 µM.

With `NC(COCP(=O)(O)O)C(=O)O` (stereo not drawn), the Ki result in experiment [1] is reported as “No inhibition”.

For the molecule `NC(C/C=C/P(=O)(O)O)C(=O)O` (stereo not drawn), the K inact result in experiment [2] is “Competitive inhibitor”. In experiment [3], this molecule came in with a Ki of 540 µM.

For the molecule `NC(CC#CP(=O)(O)O)C(=O)O` (stereo not drawn), the Ki entry in experiment [1] is on record as “No inhibition”.
